These results are taken from US9085527B2, “Fatty acid acylated salicylates and their uses” (Catabasis Pharmaceuticals, Inc., priority 2008, dated 2015).

This experiment relates to NFκB. Put plainly: NFκB-driven luciferase reporter in RAW 264.7 cells challenged with LPS. The format is cell-based, mouse. As to conditions: Mus musculus, RAW264.7, 200 ng/mL LPS for 3 hours, read-out: NFκB Inhibitory Activity, IC50 μM. As for the experimental part: RAW 264.7 cells transfected with an NFκB-driven luciferase reporter are plated in 96 well plates. Cells are treated with Vehicle (0.1% ethanol) or test compounds for 2 hours. As a positive control for inhibition of NFκB signaling, 6 wells are treated with 10 μM dexamethasone. Cells are then challenged with 200 ng/mL LPS for 3 hours in the presence of test compounds. A subset of wells treated with vehicle should remain unstimulated with LPS to determine the floor signal of the assay. NFκB driven luciferase activity is developed by addition of BriteLite luciferase kit (Perkin-Elmer) and measured using a Victor V plate reader. NFκB activity (luciferase activity) for each treatment was normalized to Vehicle wells treated with LPS (% NFκB Response). AlamarBlue was used to monitor cell viability to ensure that inhibition of luciferase signal was not a result of compound cytotoxicity.
RAW 264.7 cells stably expressing a 3×NF-κB response element-driven luciferase reporter were seeded into 96 well plates. After 18 hours, cells were pre-treated with compounds of the invention for 2 hours, and then stimulated with LPS (lipopolysaccharide, 200 ng/mL) or vehicle control for 3 h in the presence of the compounds of the invention. A set of six vehicle was left unstimulated with LPS in order to measure the assay floor. AlamarBlue viability dye (Invitrogen) was added to cells simultaneously with the delivery of LPS (final AlamarBlue concentration of 10%). After the 3 h incubation period with LPS, cell viability was measured by reading fluorescence (excitation 550 nm, emission 595 nm) with a Perkin Elmer Victor V plate reader. Then cell media was aspirated from each well. Luciferase signal was then developed by addition of the Britelite Plus reagent (Perkin Elmer). Luciferase activity was measured with the Perkin Elmer Victor V plate reader. NF-κB activity was expressed as a percent of the vehicle control wells (stimulated with LPS). Compounds were tested at 6 dose point titrations in triplicate to determine IC50 values.

For the compound `Nc1ccc(O)c(C(=O)O)c1` [Compound 5-ASA, 5-aminosalicylic acid, reference compound], the IC50 was > 200 µM.
On to `CC/C=C\C/C=C\C/C=C\C/C=C\C/C=C\C/C=C\CCC(=O)Nc1cccc(C(=O)O)c1` [Compound 17, 3-(4Z,7Z,10Z,13Z,16Z,19Z)-docosa-4,7,10,13,16,19-hexaenamidobenzoic acid], for which the IC50 was < 200 µM.
With `CCCCC/C=C\C/C=C\C/C=C\C/C=C\CCCC(=O)Nc1ccc(O)c(C(=O)O)c1` [Compound 18, 2-hydroxy-5-(5Z,8Z,11Z,14Z)-icosa-5,8,11,14-tetraenamidobenzoic acid], the half-inhibitory concentration (IC50) was > 200 µM.
In the case of `CC/C=C\C/C=C\C/C=C\C/C=C\C/C=C\C/C=C\CCC(=O)NC(CC(C)C)C(=O)Oc1ccccc1C(=O)OCC` (centres unmarked) [Compound I-1, ethyl 2-(2-(4Z,7Z,10Z,13Z,16Z,19Z)-docosa-4,7,10,13,16,19-hexaenamido-4-methylpentanoyloxy)benzoate] it was < 200 µM; in that of `CC/C=C\C/C=C\C/C=C\C/C=C\C/C=C\C/C=C\CCC(=O)NCCSSCCNC(=O)c1ccccc1O` [Compound I-2, N-(2-(2-(2-(4Z,7Z,10Z,13Z,16Z,19Z)-docosa-4,7,10,13,16,19-hexaenamidoethyl)disulfanyl)ethyl)-2-hydroxybenzamide], < 200 µM.
Under `CC/C=C\C/C=C\C/C=C\C/C=C\C/C=C\C/C=C\CCC(=O)NCCOCCNC(=O)c1ccccc1O` [Compound I-3, N-(2-(2-(4Z,7Z,10Z,13Z,16Z,19Z)-docosa-4,7,10,13,16,19-hexaenamidoethoxy)ethyl)-2-hydroxybenzamide] stands < 200 µM.
Under `CC/C=C\C/C=C\C/C=C\C/C=C\C/C=C\C/C=C\CCC(=O)NCC(C)(C)NC(=O)c1ccccc1O` [Compound I-4, N-(1-(4Z,7Z,10Z,13Z,16Z,19Z)-docosa-4,7,10,13,16,19-hexaenamido-2-methylpropan-2-yl)-2-hydroxybenzamide] stands < 200 µM; under `CC/C=C\C/C=C\C/C=C\C/C=C\C/C=C\C/C=C\CCC(=O)NCCN(C)CCNC(=O)c1ccccc1O` [Compound I-7, N-(2-((2-(4Z,7Z,10Z,13Z,16Z,19Z)-docosa-4,7,10,13,16,19-hexaenamidoethyl)(methyl)amino)ethyl)-2-hydroxybenzamide], < 200 µM; under `CC/C=C\C/C=C\C/C=C\C/C=C\C/C=C\C/C=C\CCC(=O)O` [DHA, docosahexaenoic acid, reference compound], > 200 µM.
As for `CC/C=C\C/C=C\C/C=C\C/C=C\C/C=C\C/C=C\CCC(=O)NC(CC(C)C)C(=O)Nc1ccc(O)c(C(=O)O)c1` (centres unmarked) [III-6, 5-(2-(4Z,7Z,10Z,13Z,16Z,19Z)-docosa-4,7,10,13,16,19-hexaenamido-4-methylpentanamido)-2-hydroxybenzoic acid], the half-maximal inhibitory concentration (IC50) is < 200 µM.
In the case of `CC/C=C\C/C=C\C/C=C\C/C=C\C/C=C\C/C=C\CCC(=O)Nc1ccc(O)c(C(=O)OC)c1` [IIIb-1, methyl 5-docosa-4,7,10,13,16,19-hexaenamido-2-hydroxybenzoate] it was < 200 µM; in that of `CC/C=C\C/C=C\C/C=C\C/C=C\C/C=C\C/C=C\CCC(=O)NCC(=O)Nc1ccc(O)c(C(=O)O)c1` [IIIf-1, 5-(2-(4Z,7Z,10Z,13Z,16Z,19Z)-docosa-4,7,10,13,16,19-hexaenamidoacetamido)-2-hydroxybenzoic acid], > 200 µM.
In the case of `CC/C=C\C/C=C\C/C=C\C/C=C\C/C=C\C/C=C\CCC(=O)NC(Cc1ccccc1)C(=O)Nc1ccc(O)c(C(=O)O)c1` (centres unmarked) [IIIf-2, 5-(2-(4Z,7Z,10Z,13Z,16Z,19Z)-docosa-4,7,10,13,16,19-hexaenamido-3-phenylpropanamido)-2-hydroxybenzoic acid] it was > 200 µM; in that of `CC/C=C\C/C=C\C/C=C\C/C=C\C/C=C\CCCC(=O)Nc1ccc(O)c(C(=O)O)c1` [IIIg-1, 2-hydroxy-5-(5Z,8Z,11Z,14Z,17Z)-icosa-5,8,11,14,17-pentaenamidobenzoic acid], < 200 µM.
